Reference: US20060122276A1, “Agent for inhibiting membrane virus reproduction, method for the production thereof, pharmaceutical composition and method for inhibiting viral infections” (priority 2003, published 2006)
Like-named read-outs stand apart in the source and are kept apart here.

What was measured:
[1] = tested on: human embryo fibroblasts (M-21); assay: Cytotoxic action on non-infected M-21 cells; format: cell-based; conditions: 500 and 1000 μg/ml; 3-days follow-up
[2] = tested on: herpes simplex virus (HSV-1); assay: Antiviral activity with respect to HSV-1 in human embryo fibroblasts (M-21); format: cell-based, type 1, strain L2; conditions: 100 TCD50, 48 hours after the infection
Description: Herpes simplex virus, type 1, strain L2, replicated in VERO cells was used in the investigation.
[…] acyclovir was used as positive control

hepatitis C virus = assay: Viability of hepatitis C virus-infected SPEV cell cultures; format: cell-based, hepatitis C virus genotype 1b; conditions: 7th day after infecting (control 0)
Method: In our work we used cytopathogenic strain of hepatitis C virus belonging to geno-type 1b. The strain was isolated from the blood serum of a patient suffering from chronic viral hepatitis C, identified as hepatic C virus. Infective doses of HSV equal to 10 TCD of 50/20 μl were used in the investigation.
Cultures of reinoculated porcine embryo kidney cells (SPEV), highly sensitive to the pathogenic action of HSV, obtained from “Narva” Company (Russia) were employed. These cultures were used in the form of a one day monolayer of cells, grown in 24-cell plastic plates.
(§1) For studying the antiviral activity of the preparation, the preparation was introduced in various concentrations into the SPEV cell cultures at the moment of infection and in 24 hours after the infection with hepatitis C virus on the cell in 24-cell plastic culture plates.
The viability of the SPEV cell cultures infected and non-infected with HSV was studied on the 7th day after the infection.

[3] = tested on: porcine embryo kidney cells (SPEV); assay: Cytotoxic properties on SPEV cell culture; format: cell-based; conditions: for Percentage of died cells on exposure with different concentrations of the preparation during 48 hours: SPEV
Method: Cultures of reinoculated porcine embryo kidney cells (SPEV), highly sensitive to the pathogenic action of HSV, obtained from “Narva” Company (Russia) were employed. These cultures were used in the form of a one day monolayer of cells, grown in 24-cell plastic plates. The cultures of SPEV cells were grown on medium 199 with 10% of fetal calf serum with addition of glutamine and antibiotics (100 U/ml).
as §1

[4] = tested on: lymphoblastoid human cells MT-4; assay: Cytotoxicity on non-infected human lymphoblastoid cells; format: cell-based; conditions: for Cytotoxic action of the preparation on cells: 1, 10 μg/ml and higher (to 100 μg/ml)
HIV-1 [5] = conditions: for Protection of MT-4 cells against viral cytopathic action of HIV-1: HIV-1 100 TCD50
Method: Cells Reinoculated humans lymphoblastoid cells MT-4 were used. […] The viability of the cells was determined from the color of a 0.4% solution of trypan blue.
Retrovir (azidothymidin) produced by GlaxoWellcome (Great Britain) was used as positive control.
The Antiviral activity of the preparations was investigated on a model of lymphoblastoid cells in a plastic 24-cell plate. The virus dose was 100 TCD50 (50% tissue cytopathic dose). […] The activity of the preparation was determined from the inhibition of the virus-induced cytopathic action (CPA) in the cell cultures and the virus antigen level in the culture fluid by immunoenzymatic analysis.

Hep 2 cells = assay: Apoptosis signs in Hep 2 cells (DNA fragmentation, Fas-antigen mRNA forms); format: cell-based, human; conditions: for Redistribution of soluble and membrane Fas-antigen mRNA forms indicative of Fas-dependent apoptosis: 10, 50, 100 μg/ml
Description: A reduction in the intensity of protein profiles was observed on the second day and most dramatically on the seventh day at the studied concentrations of the preparation as compared with control. This can be indicative of a reduction in the number of cells because of inhibition of the mitotic activity of cells in the presence of the preparation. On the 7th day of the action of the preparation a reduction in the number of DNA compared with control was observed. Checking for the presence of DNA fragmentation has shown its absence, i.e., apoptosis manifestations were not detected.
For establishing the influence of the preparation on intracellular biosynthetic processes, we have analyzed the synthesis and maturing in the Hep 2 cells of Fas-antigen mRNA. Fas-antigen is a receptor protein of the signal of programmed death of cells—apoptosis—and it can exist in two forms: in membrane form and in soluble form. It has been shown that in the presence of the preparation there occurs redistribution of the alternative forms of the Fas-antigen mRNA, this being indicative of the influence of the preparation on the biosynthetic processes in Hep 2 cells on the transcripton level; however, reconstructions indicative of the feasibility of Fas-dependent apoptosis are absent (FIG. 8).

HIV-1 [6] = conditions: for Optical density: 6th day, values >0.086 are positive for HIV
[7] = 0.25 μg/ml, HIV-1-infected lymphoblastoid cells, 5th day
[8] = 0.5 μg/ml, HIV-1-infected lymphoblastoid cells, 5th day
[9] = 1 μg/ml, 2 hrs of contact, washing off of cells No, 6th day
[10] = 1 μg/ml, 2 hrs of contact, washing off of cells Yes, 6th day
[11] = 1.0 μg/ml, HIV-1-infected lymphoblastoid cells, 5th day
[12] = 1 μg/ml, exposure 1 hr, washing off of cells Yes, 6th day
[13] = 1 μg/ml, exposure 2 hrs, washing off of cells Yes, 6th day
[14] = 1 μg/ml, exposure 24 hrs, washing off of cells Yes, 6th day
[15] = 1 μg/ml, exposure during the entire experiment, washing off of cells No, 6th day
[16] = 10 μg/ml, 2 hrs of contact, washing off of cells No, 6th day
[17] = 10 μg/ml, 2 hrs of contact, washing off of cells Yes, 6th day
[18] = 10 μg/ml, HIV-1-infected lymphoblastoid cells, 5th day
[19] = 10 μg/ml, exposure 2 hrs (first such line, r25), washing off of cells Yes, 6th day
[20] = 10 μg/ml, exposure 2 hrs (second such line, r29), washing off of cells Yes, 6th day
[21] = 10 μg/ml, exposure 24 hrs, washing off of cells Yes, 6th day
[22] = 10 μg/ml, exposure during the entire experiment, washing off of cells No, 6th day
[23] = 100 μg/ml, HIV-1-infected lymphoblastoid cells, 5th day
[24] = preparation 1 hr after infecting, HIV-1
[25] = preparation 2 hrs before infecting, HIV-1
[26] = preparation + virus simultaneously, HIV-1

sodium salt of fullerene-polyamino-caproic acid
Cytodestructive action on non-infected M-21 cells [1]: has not revealed cytodestructive action
Protection of M-21 cells against the cytodestructive action of HSV-1 ([2]; 10 μg/ml): full protection
Protection of M-21 cells from the cytodestructive action of HSV-1 ([2]; 1.0, 10 and 50 μg/ml, introduced 30 and 60 minutes after the infection): full protection
Percentage of survived SPEV cells (hepatitis C virus; 6.25 μg/ml, introduced 24 hours after infecting): 0%
Percentage of survived SPEV cells (hepatitis C virus; 6.25 μg/ml, introduced at the moment of infecting): 0%
Percentage of survived SPEV cells (hepatitis C virus; 12.5 μg/ml, introduced 24 hours after infecting): 0%
Percentage of survived SPEV cells (hepatitis C virus; 12.5 μg/ml, introduced at the moment of infecting): 0%
Percentage of survived SPEV cells (hepatitis C virus; 25 μg/ml, introduced 24 hours after infecting): 0%
Percentage of survived SPEV cells (hepatitis C virus; 25 μg/ml, introduced at the moment of infecting): 0%
Percentage of survived SPEV cells (hepatitis C virus; 50 μg/ml, introduced 24 hours after infecting): 50%
Percentage of survived SPEV cells (hepatitis C virus; 50 μg/ml, introduced at the moment of infecting): 75%
Percentage of survived SPEV cells (hepatitis C virus; 100 μg/ml, introduced 24 hours after infecting): 100%
Percentage of survived SPEV cells (hepatitis C virus; 100 μg/ml, introduced at the moment of infecting): 100%
Percentage of died cells on exposure with different concentrations of the preparation during 48 hours ([3]; 6.25 (in μg)): 0%
Percentage of died cells on exposure with different concentrations of the preparation during 48 hours ([3]; 12.5 (in μg)): 0%
Percentage of died cells on exposure with different concentrations of the preparation during 48 hours ([3]; 25 (in μg)): 0%
Percentage of died cells on exposure with different concentrations of the preparation during 48 hours ([3]; 50 (in μg)): 0%
Percentage of died cells on exposure with different concentrations of the preparation during 48 hours ([3]; 100 (in μg)): 0%
Cytotoxic properties for SPEV cell cultures ([3]; concentration of up to 100 μg/ml): does not have cytotoxic properties
Viability of cells, % ([4]; 100 μg/ml, non-infected human lymphoblastoid cells (cell control 93)): 85%
Number of cells in 1 ml × 1000 ([4]; 100 μg/ml, non-infected human lymphoblastoid cells (cell control 966)): 866 in 1 ml × 1000
Cytotoxic action of the preparation on cells [4]: no cytotoxic action
Cytotoxic action of the preparation on cells ([4]; listed as sodium salt of fullerene-polyamino-propanoic acid): not detected
CPE/syncytia, % (HIV-1 [5]; [7]): 50%
Number of cells in 1 ml × 1000 (HIV-1 [5]; [7]): 1000 in 1 ml × 1000
CPE/syncytia, % (HIV-1 [5]; [8]): 25%
Number of cells in 1 ml × 1000 (HIV-1 [5]; [8]): 1299 in 1 ml × 1000
CPE/syncytia, + (HIV-1 [5]; [9]): 0 +
Number of cells × 10^3 ml (HIV-1 [5]; [9]): 2200 × 10^3 ml
CPE/syncytia, + (HIV-1 [5]; 1 μg/ml, 2 hrs of contact, washing off of cells No, 8th day): 0 +
CPE/syncytia, + (HIV-1 [5]; [10]): 2.5+
Number of cells × 10^3 ml (HIV-1 [5]; [10]): 1700 × 10^3 ml
CPE/syncytia, + (HIV-1 [5]; 1 μg/ml, 2 hrs of contact, washing off of cells Yes, 8th day): 3.5+
Protection of MT-4 cells against viral cytopathic action of HIV-1 (HIV-1 [5]; 1 μg/ml): full protection
Protection of MT-4 cells against viral cytopathic action of HIV-1 (HIV-1 [5]; 1 μg/ml, listed as sodium salt of fullerene-polyamino-propanoic acid): Full protection
CPE/syncytia, % (HIV-1 [5]; [11]): 0%
Number of cells in 1 ml × 1000 (HIV-1 [5]; [11]): 1466 in 1 ml × 1000
CPE/syncytia, + (HIV-1 [5]; [12]): 0.5+
Number of cells × 10^3 ml (HIV-1 [5]; [12]): 2000 × 10^3 ml
CPE/syncytia, + (HIV-1 [5]; 1 μg/ml, exposure 1 hr, washing off of cells Yes, 8th day): 1.5+
CPE/syncytia, + (HIV-1 [5]; [13]): 0.5+
Number of cells × 10^3 ml (HIV-1 [5]; [13]): 1700 × 10^3 ml
CPE/syncytia, + (HIV-1 [5]; 1 μg/ml, exposure 2 hrs, washing off of cells Yes, 8th day): 1+
CPE/syncytia, + (HIV-1 [5]; [14]): 0.1+
Number of cells × 10^3 ml (HIV-1 [5]; [14]): 2100 × 10^3 ml
CPE/syncytia, + (HIV-1 [5]; 1 μg/ml, exposure 24 hrs, washing off of cells Yes, 8th day): 0.5+
CPE/syncytia, + (HIV-1 [5]; [15]): 0 +
Number of cells × 10^3 ml (HIV-1 [5]; [15]): 2300 × 10^3 ml
CPE/syncytia, + (HIV-1 [5]; 1 μg/ml, exposure during the entire experiment, washing off of cells No, 8th day): 0 +
CPE/syncytia, + (HIV-1 [5]; [16]): 0 +
Number of cells × 10^3 ml (HIV-1 [5]; [16]): 2600 × 10^3 ml
CPE/syncytia, + (HIV-1 [5]; 10 μg/ml, 2 hrs of contact, washing off of cells No, 8th day): 0 +
CPE/syncytia, + (HIV-1 [5]; [17]): 1.75+
Number of cells × 10^3 ml (HIV-1 [5]; [17]): 1500 × 10^3 ml
CPE/syncytia, + (HIV-1 [5]; 10 μg/ml, 2 hrs of contact, washing off of cells Yes, 8th day): 3.0+
CPE/syncytia, % (HIV-1 [5]; [18]): 0%
Number of cells in 1 ml × 1000 (HIV-1 [5]; [18]): 1633 in 1 ml × 1000
CPE/syncytia, + (HIV-1 [5]; [19]): 0 +
Number of cells × 10^3 ml (HIV-1 [5]; [19]): 2300 × 10^3 ml
CPE/syncytia, + (HIV-1 [5]; 10 μg/ml, exposure 2 hrs (first such line, r25), washing off of cells Yes, 8th day): 0 +
CPE/syncytia, + (HIV-1 [5]; [20]): 0 +
Number of cells × 10^3 ml (HIV-1 [5]; [20]): 1800 × 10^3 ml
CPE/syncytia, + (HIV-1 [5]; 10 μg/ml, exposure 2 hrs (second such line, r29), washing off of cells Yes, 8th day): 0 +
CPE/syncytia, + (HIV-1 [5]; [21]): 0 +
Number of cells × 10^3 ml (HIV-1 [5]; [21]): 2300 × 10^3 ml
CPE/syncytia, + (HIV-1 [5]; 10 μg/ml, exposure 24 hrs, washing off of cells Yes, 8th day): 0 +
CPE/syncytia, + (HIV-1 [5]; [22]): 0 +
Number of cells × 10^3 ml (HIV-1 [5]; [22]): 2500 × 10^3 ml
CPE/syncytia, + (HIV-1 [5]; 10 μg/ml, exposure during the entire experiment, washing off of cells No, 8th day): 0 +
CPE/syncytia, % (HIV-1 [5]; [23]): 0%
Number of cells in 1 ml × 1000 (HIV-1 [5]; [23]): 1500 in 1 ml × 1000
CPE/syncytia, % (HIV-1 [5]; [24]): 0%
Number of cells in 1 ml × 1000 (HIV-1 [5]; [24]): 1100 in 1 ml × 1000
CPE/syncytia, % (HIV-1 [5]; [25]): 0%
Number of cells in 1 ml × 1000 (HIV-1 [5]; [25]): 1100 in 1 ml × 1000
CPE/syncytia, % (HIV-1 [5]; [26]): 0%
Number of cells in 1 ml × 1000 (HIV-1 [5]; [26]): 1100 in 1 ml × 1000
DNA fragmentation (apoptosis manifestations) (Hep 2 cells): not recorded
Redistribution of soluble and membrane Fas-antigen mRNA forms indicative of Fas-dependent apoptosis (Hep 2 cells): no redistribution
Redistribution of soluble and membrane Fas-antigen mRNA forms indicative of Fas-dependent apoptosis (Hep 2 cells; listed as preparation): absent
DNA fragmentation (apoptosis manifestations) (Hep 2 cells; listed as preparation): absence
Optical density (HIV-1 [6]; 0.5 μg/ml): 2.147
Optical density (HIV-1 [6]; 1.0 μg/ml): 0.165
Optical density (HIV-1 [6]; 10 μg/ml): 0.074
Virus in the culture medium (HIV-1 [6]; 10 μg/ml, HIV-1): not detected
